# Laboratory results published in paper PMC11203575, “The First In Vivo Study Shows That Gyrophoric Acid Changes Behavior of Healthy Laboratory Rats” (International Journal of Molecular Sciences, 2024).
# Biological target: T1, human serum albumin (HSA) (Homo sapiens, UniProt P02768)
# T1 construct: gene ALB; Albumin from human serum (A1887, Sigma Aldrich)
# Assay: intrinsic fluorescence quenching titration (Stern-Volmer), synchronous and 3D fluorescence
# Type: binding
# Conditions: read-out: KB × 10^6 (M^-1) (converted)
# T1 sequence (P02768 25-609): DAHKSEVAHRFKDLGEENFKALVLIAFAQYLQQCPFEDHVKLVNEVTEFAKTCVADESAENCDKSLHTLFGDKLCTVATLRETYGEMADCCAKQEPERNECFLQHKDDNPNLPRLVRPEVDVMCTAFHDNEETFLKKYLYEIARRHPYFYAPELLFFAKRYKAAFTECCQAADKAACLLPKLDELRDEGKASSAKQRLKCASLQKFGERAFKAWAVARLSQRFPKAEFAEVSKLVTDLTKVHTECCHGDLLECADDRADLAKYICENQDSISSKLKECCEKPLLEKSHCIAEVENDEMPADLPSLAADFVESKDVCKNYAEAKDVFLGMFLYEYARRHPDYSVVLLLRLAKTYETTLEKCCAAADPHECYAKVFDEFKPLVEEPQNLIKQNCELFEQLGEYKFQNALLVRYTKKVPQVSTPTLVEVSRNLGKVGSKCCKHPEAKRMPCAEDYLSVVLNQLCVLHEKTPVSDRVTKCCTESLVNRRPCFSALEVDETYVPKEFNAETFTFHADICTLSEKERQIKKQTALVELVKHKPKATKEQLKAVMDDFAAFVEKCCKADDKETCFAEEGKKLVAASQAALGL
structure (smiles),measurement,value
"Cc1cc(OC(=O)c2c(C)cc(OC(=O)c3c(C)cc(O)cc3O)cc2O)cc(O)c1C(=O)O [GA, Gyrophoric acid]",Kd,559 nM
